For one test, the system named is ER stress. Put plainly: ER stress, tau kinase and apoptosis markers after blast-induced TBI (western blot, immunohistochemistry, PCR). Format: in vivo, Sprague Dawley rat. On the procedure:
An animal model was used to evaluate TBI, and neuropathological specimens (donated by the Brain Injury Research Institute brain bank) were used to evaluate CTE. TBI was blast induced in the animal model. […] Salubrinal was administered to the animal model following the injury. The ER stress was modulated by the use of salubrinal. […] This example assessed the successful targeting of ER stress after TBI. […] A Sprague Dawley rat was positioned in a protective tube to prevent injury to the peripheral organs, and an acceleration wave was generated and allowed to collide with the skull of the rat. The intensity of the injury was adjusted in a step-wise manner by decreasing or increasing the thickness of the membrane that exploded with pressurized nitrogen gas. An injury paradigm of 50 PSI was selected, which correlates with human concussion, that is the most common type of injury linked to CTE. In FIG. 4, the peak in plot D illustrates the 50 PSI pressure wave. The Sprague Dawley rats were given either one injury, or six injuries over a two-week period. Various time points of sacrifice were chosen to look at markers of ER stress and tauopathy. Salubrinal was administered to the rats after injury to target ER stress. Salubrinal was administered by IP injection 30 minutes after injury using a dose of 1 mg/kg. […] Salubrinal-mediated CHOP reduction may be associated with preservation of the pro-form of Caspase-12 that when cleaved, has been associated with ER-mediated apoptosis or cell death. Reducing CHOP with salubrinal also may result in reduction of sustained oxidative stress and neuro-inflammation. LICOR western blot protocols, IHC world immunohistochemistry protocols, and Applied Biosystems PCR protocols were used for the assays. ANOVA was used for analysis with p<0.05 being statistically significant. *=p<0.05, **=p<0.01, ***=p<0.001. When the drug group was compared to the injury group #=p<0.05, ##=p<0.01, ###=p<0.001.
(In general: In western blotting, separated proteins are transferred to a membrane and probed.)

Test [1] relates to Sprague Dawley rat. Put plainly: Morris water maze after blast injury (cognitive performance). The class given is in vivo. On the procedure:
(§1) The administration of salubrinal prior to bTBI was also evaluated in an animal model. Use of the salubrinal ameliorated neuropsychiatric deficits in the form of impulsive-like behavior as measured by the elevated plus maze test/protocol, and spatial memory as measured by the Morris water maze test/protocol. This example assessed the successful targeting of ER stress after TBI. […] A Sprague Dawley rat was positioned in a protective tube to prevent injury to the peripheral organs, and an acceleration wave was generated and allowed to collide with the skull of the rat. The intensity of the injury was adjusted in a step-wise manner by decreasing or increasing the thickness of the membrane that exploded with pressurized nitrogen gas. An injury paradigm of 50 PSI was selected, which correlates with human concussion, that is the most common type of injury linked to CTE. In FIG. 4, the peak in plot D illustrates the 50 PSI pressure wave. The Sprague Dawley rats were given either one injury, or six injuries over a two-week period. Various time points of sacrifice were chosen to look at markers of ER stress and tauopathy. In this example, the effect of targeting (turning off) ER stress on improved behavior was studied by utilizing the injury models and standard protocols for Morris water maze and elevated plus maze. The Morris water maze detected deficits in cognitive performance whereas the elevated plus maze evaluated impulsive-like behavior. […] ANOVA was used for statistical analysis with *=p<0.05, **=p<0.01, ***=p<0.001. When drug was compared to injury group #=p<0.05, ##=p<0.01, ###=p<0.001.

For test [2], the system named is Sprague Dawley rat. In words: Elevated plus maze after blast injury (impulsive-like behavior). Format: in vivo. On the procedure:
as §1

For the next test, the system named is neuroinflammation. Put plainly: Neuroinflammation markers after blast injury. The class given is in vivo, Sprague Dawley rat. The text has this: This example assessed the successful targeting of ER stress after TBI. […] A Sprague Dawley rat was positioned in a protective tube to prevent injury to the peripheral organs, and an acceleration wave was generated and allowed to collide with the skull of the rat. The intensity of the injury was adjusted in a step-wise manner by decreasing or increasing the thickness of the membrane that exploded with pressurized nitrogen gas. An injury paradigm of 50 PSI was selected, which correlates with human concussion, that is the most common type of injury linked to CTE. In FIG. 4, the peak in plot D illustrates the 50 PSI pressure wave. The Sprague Dawley rats were given either one injury, or six injuries over a two-week period. Various time points of sacrifice were chosen to look at markers of ER stress and tauopathy. Salubrinal was administered to the rats after injury to target ER stress. Salubrinal was administered by IP injection 30 minutes after injury using a dose of 1 mg/kg. […] Salubrinal-mediated CHOP reduction may be associated with preservation of the pro-form of Caspase-12 that when cleaved, has been associated with ER-mediated apoptosis or cell death. Reducing CHOP with salubrinal also may result in reduction of sustained oxidative stress and neuro-inflammation. LICOR western blot protocols, IHC world immunohistochemistry protocols, and Applied Biosystems PCR protocols were used for the assays. ANOVA was used for analysis with p<0.05 being statistically significant. *=p<0.05, **=p<0.01, ***=p<0.001. When the drug group was compared to the injury group #=p<0.05, ##=p<0.01, ###=p<0.001. […] Measured components included NF kappa B (plot A), inducible nitric oxide synthase (iNOS) (plot B), interleukin 1 beta (IL-1β) (plot C), and tumor necrosis factor alpha (TNFα) (plot D). As shown in plots A, C and D, salubrinal administration (sTBI+SAL) reduced pro-inflammatory markers NFκB, IL-1β and TNFα, respectively.

The subject of the next test is oxidative stress. In words: Oxidative stress markers after blast injury. The class given is in vivo, Sprague Dawley rat. The text has this: This example assessed the successful targeting of ER stress after TBI. […] A Sprague Dawley rat was positioned in a protective tube to prevent injury to the peripheral organs, and an acceleration wave was generated and allowed to collide with the skull of the rat. The intensity of the injury was adjusted in a step-wise manner by decreasing or increasing the thickness of the membrane that exploded with pressurized nitrogen gas. An injury paradigm of 50 PSI was selected, which correlates with human concussion, that is the most common type of injury linked to CTE. In FIG. 4, the peak in plot D illustrates the 50 PSI pressure wave. The Sprague Dawley rats were given either one injury, or six injuries over a two-week period. Various time points of sacrifice were chosen to look at markers of ER stress and tauopathy. Salubrinal was administered to the rats after injury to target ER stress. Salubrinal was administered by IP injection 30 minutes after injury using a dose of 1 mg/kg. […] Salubrinal-mediated CHOP reduction may be associated with preservation of the pro-form of Caspase-12 that when cleaved, has been associated with ER-mediated apoptosis or cell death. Reducing CHOP with salubrinal also may result in reduction of sustained oxidative stress and neuro-inflammation. LICOR western blot protocols, IHC world immunohistochemistry protocols, and Applied Biosystems PCR protocols were used for the assays. ANOVA was used for analysis with p<0.05 being statistically significant. *=p<0.05, **=p<0.01, ***=p<0.001. When the drug group was compared to the injury group #=p<0.05, ##=p<0.01, ###=p<0.001. […] Measured components included carbonyls (plot A), superoxide (plot B), reactive oxygen species (ROS) (plot C), and NADPH oxidase 4 (NOX4) (plot D). As shown in A, B and […], administration of salubrinal (sTBI+SAL) reduced protein carbonyls, super-oxides, and total oxidative stress production, respectively.

Setting [3] is: bTBI animal model, administered following the injury.
Setting [4] is: post-blast administration (FIG. 6).

“Also recorded” adds a separate entry of the source.

Take `CC/C=C\C/C=C\C/C=C\C/C=C\C/C=C\C/C=C\CCC(=O)O` [DHA]: in the test with ER stress (three weeks following repetitive injury (FIG. 10 plot A)), the “ER stress activator BiP” value is reported as “inhibited”. For the same compound, in the test with ER stress (three weeks following repetitive injury (FIG. 10 plot B)), the “tau kinase GSK3β” value is listed as “inhibited”. In the test on Sprague Dawley rat [1] (after injury (FIG. 13 panel D)), the “cognitive learning, Morris water maze” value is reported as “improved”. Further, the “retention of a learned event, probe trial” value in the test on Sprague Dawley rat [1] (after injury (FIG. 13 panel E)) is reported as “enhanced”.

Turning to `O=C(/C=C/c1ccccc1)NC(NC(=S)Nc1cccc2cccnc12)C(Cl)(Cl)Cl` (stereo not drawn) [salubrinal, 3-phenyl-N-[2,2,2-trichloro-1-[[(8-quinolinylamino)thioxomethyl]amino]ethyl]-2-propenamide], the “impulsive-like behavior, time spent in the open arm of the elevated plus maze” value in the test with Sprague Dawley rat [2] (administered after injury, 72 hours after the repeat injury (FIG. 12)) is “reduced”. The “impulsive-like behavior, time in the open arm of the elevated plus maze” value in the test on Sprague Dawley rat [2] (administered after injury, seven days after a single injury (FIG. 11)) is on record as “reduced”. In addition, the “neuropsychiatric deficits: impulsive-like behavior, elevated plus maze” value with Sprague Dawley rat [2] (administered prior to bTBI) is given as “ameliorated”. Also, in the test with neuroinflammation (24 hours after injury (FIG. 8 plot A)), the “NFκB (pro-inflammatory marker)” value was “reduced”. Further, the “IL-1β (pro-inflammatory marker)” value in the test on neuroinflammation (24 hours after injury (FIG. 8 plot C)) is reported as “reduced”. Further, the “TNFα (pro-inflammatory marker)” value in the test on neuroinflammation (24 hours after injury (FIG. 8 plot D)) is on record as “reduced”. Moreover, the GSK3β activity entry in the test with ER stress (1 mg/kg IP 30 minutes after injury) is listed as “reduced”. In the test on ER stress (1 mg/kg IP 30 minutes after injury, 24 hours after a single blast injury (FIG. 5 plot C)), the “CHOP (marker of ER stress)” value is “prevented the surge; also recorded: significantly reduced”. In addition, the “GADD34 (marker of ER stress)” value with ER stress (1 mg/kg IP 30 minutes after injury, 24 hours after a single blast injury (FIG. 5 plot E)) is listed as “inhibited; also recorded: significantly reduced”. In the test with ER stress (setting [3]), the ER stress entry is reported as “modulated”; the “markers of neural degeneration and apoptosis” value is on record as “reducing”. For the same compound, in the test with ER stress (setting [4]), the CHOP by immunohistochemistry entry was “significantly reduced” and the “cleaved Caspase 3 (pro-apoptotic marker) by immunohistochemistry” value is recorded as “reduced”. For the same compound, in the test on oxidative stress (24 hours after injury (FIG. 7 plot A)), the protein carbonyls entry was “reduced”. In addition, the super-oxides result with oxidative stress (24 hours after injury (FIG. 7 plot B)) is recorded as “reduced”. The “total oxidative stress production” value in the test with oxidative stress (24 hours after injury (FIG. 7 plot D)) is given as “reduced”. In the test on Sprague Dawley rat [1] (administered prior to bTBI), the “neuropsychiatric deficits: spatial memory, Morris water maze” value is “ameliorated”.

(Values after patent publication US20200016145A1, “TREATMENT OF CHRONIC TRAUMATIC ENCEPHALOPATHY” (CTEC LLC, priority 2018, published 2020).)
